Data reported in publication PMC2364952, “The Anti-Inflammatory Activity of Boron Derivatives in Rodents” (Metal-Based Drugs, 1995).

How the values were obtained:
[1] = system: carrageenan-induced inflammation of hind foot; test: Carrageenan-induced foot edema, mice; type: in vivo, CF1 male mice; details: for reduction of induced edema / anti-inflammatory activity in mouse edema screen: mice; for reduction of induced edema: 8 mg/kg x 2, I.P., carrageenan; for inhibition of induced inflammation: standards at their therapeutic dose (indomethacin 8 mg/kg x 2, pentoxifylline and phenylbutazone 50 mg/kg x 2); for anti-inflammatory activity in mouse edema screen: 8 mg/kg x 2
[2] = system: acetic acid induced stretch reflex; test: Local analgesic screen (acetic acid writhing); type: in vivo, CF1 mice; details: for Mice Writhing Reflex: 8 mg/kg I.P., Table 2; for reduction of the reflex action: mice, acetic acid induced local pain, 8 mg/kg
[3] = system: cathepsin; test: Cathepsin activity, mouse macrophages; type: cell-based, mouse (J774 macrophages); details: Table 3; read-out: IC50 Cathepsin, Mouse Macrophage
[4] = system: trypsin; test: Trypsin proteolytic activity, mouse macrophages; type: cell-based, mouse (J774 macrophages); details: Table 5; read-out: IC50 Trypsin, Mouse Macrophage
[5] = target: prostaglandin cyclooxygenase; test: Prostaglandin cyclooxygenase activity, macrophages; type: cell-based, mouse (J774 macrophages); details: Table 7
[6] = target: aryl sulphatase; test: Aryl sulfatase activity, mouse macrophages; type: cell-based, mouse (J774 macrophages); details: Table 3; read-out: IC50 Aryl Sulfatase, Mouse Macrophage
[7] = target: elastase; test: Elastase activity, mouse macrophages; type: cell-based, mouse (J774 macrophages); details: Table 5; read-out: IC50 Elastase, Mouse Macrophage
[8] = target: acid phosphatase; test: Acid phosphatase activity, mouse macrophages; type: cell-based, mouse (J774 macrophages); details: Table 3; read-out: IC50 Acid Phosphatase, Mouse Macrophage
[9] = system: tail flick response to heat; test: Hot plate tail flick screen; type: in vivo, CF1 male mice; details: for Mice Tail Flick: 8 mg/kg I.P., hot plate, Table 2; for tail flick assay time / blocking central pain compared with morphine: mice; for tail flick assay time: 8 mg/kg; for blocking central pain compared with morphine: tail flick
[10] = system: carrageenan-induced inflammation of paw; test: Carrageenan-induced paw edema, rats; type: in vivo, Sprague Dawley male rats; details: for Rat Inflammatory: 8 mg/kg x 2, I.P., Table 2; for reduction in induced edema in rats: 8 mg/kg x 2;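 as to Rat Inflammatory: paw weight increase as percent of control rats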
[11] = system: carrageenan-induced pleural fluid; test: Anti-pleurisy screen; type: in vivo, Sprague Dawley male rats; details: for pleurisy edema in rats: 8 mg/kg; for Rat Pleurisy: rats, 8 mg/kg I.P., 1 h before and 3 h after carrageenan, Table 2;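 as to Rat Pleurisy: Pleural fluid volume as percent of control rats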

CCOC(=O)[BH2-][N+](C)(C)CP(=O)(OCC)OCC [Compound 68]
reduction of induced edema [1]: at least 40%

C[NH2+][BH2-]C(=O)NO.[H+].c1ccc([B-](c2ccccc2)(c2ccccc2)c2ccccc2)cc1 [Compound 75]
reduction of induced edema [1]: at least 40%
Mice Writhing Reflex [2]: 34 % of control
reduction of the reflex action [2]: at least 45%
IC50 [3]: 4.58 µM
IC50 [4]: 2.51 µM
IC50 [5]: 6.61 µM
IC50 [6]: 1.5 µM
IC50 [7]: 7.59 µM
IC50 [8]: 6.61 µM
Mice Tail Flick [9]: 279 % of control
tail flick assay time [9]: increased
blocking central pain compared with morphine [9]: as effective as morphine

CCCCC1C(=O)N(c2ccccc2)N(c2ccccc2)C1=O [Phenylbutazone, phenylbutazone, reference compound]
inhibition of induced inflammation [1]: 47%
Rat Inflammatory [10]: 47 % of control

CC(C)OP(=O)(C[NH+](C)[BH2-]C#N)OC(C)C (centres unmarked) [Compound 67]
reduction of induced edema [1]: at least 40%

CCNC(=O)[BH2-][NH+](C)CP(=O)(OC(C)C)OC(C)C (centres unmarked) [Compound 73]
reduction of induced edema [1]: at least 40%

Cc1[nH]cc[n+]1[BH2-]C#N [Compound 91]
reduction of induced edema [1]: at least 30%

COC(=O)[BH2-][NH+]1CCC(c2ccccc2)CC1 (centres unmarked) [Compound 87]
reduction of induced edema [1]: at least 30%
Mice Writhing Reflex [2]: 89 % of control
IC50 [3]: 3.99 µM
IC50 [4]: 2.85 µM
IC50 [7]: 6.98 µM
IC50 [8]: 2.68 µM

CCNC(=O)[BH2-][N+](C)(C)CC[N+](C)(C)[BH2-]C(=O)NCC [Compound 30]
Mice Writhing Reflex [2]: 34 % of control

CCC[NH+]([BH2-]C(=O)O)CCC [Compound 6]
Mice Writhing Reflex [2]: 19 % of control
reduction in induced edema in rats [10]: at least 40%
Rat Inflammatory [10]: 55 % of control

C[N+]1([BH2-]C(=O)O)CCOCC1 [Compound 84]
reduction of induced edema [1]: at least 30%

CCOP(=O)(C[N+](C)(C)[BH2-]C#N)OCC [Compound 66]
reduction of induced edema [1]: at least 40%

C[NH+](C)[BH2-]C(=O)O [Compound 3]
IC50 [3]: 6.39 µM
IC50 [4]: 3.1 µM
IC50 [5]: 2.91 µM
IC50 [7]: 2.67 µM
IC50 [8]: 4.75 µM
Mice Tail Flick [9]: 156 % of control
tail flick assay time [9]: increased

CCNC(=O)[BH2-][P+]([O-])(OCC)OCC.[Na+] [Compound 54]
reduction of induced edema [1]: at least 40%

CCNC(=O)[BH2-][NH+](C)CP(=O)(OCC)OCC (centres unmarked) [Compound 69]
reduction of induced edema [1]: at least 40%

CCNC(=O)[BH2-][N+](C)(C)C [Compound 25]
Mice Writhing Reflex [2]: 89 % of control

CC[N+]([BH2-]C#N)(CC)CP(=O)(OC)OC [Compound 62]
reduction of induced edema [1]: at least 40%

C[N+](C)(C)[BH2-]C(=O)O [Compound 4]
Mice Writhing Reflex [2]: 2 % of control
reduction of the reflex action [2]: 80%
reduction in induced edema in rats [10]: at least 40%
Rat Inflammatory [10]: 55 % of control

CC[NH2+][BH2-]C(=O)O [Compound 5]
Mice Writhing Reflex [2]: 1 % of control
reduction of the reflex action [2]: 80%
reduction in induced edema in rats [10]: at least 40%
Rat Inflammatory [10]: 59 % of control
Mice Tail Flick [9]: 196 % of control
tail flick assay time [9]: increased

C[N+](C)(C)[BH2-]C(=O)NO.[H+].c1ccc([B-](c2ccccc2)(c2ccccc2)c2ccccc2)cc1 [Compound 76]
reduction of induced edema [1]: at least 40%
Mice Writhing Reflex [2]: 45 % of control
reduction of the reflex action [2]: at least 45%
Rat Inflammatory [10]: 60 % of control
IC50 [3]: 1.69 µM
IC50 [4]: 2.06 µM
IC50 [5]: 1.61 µM
IC50 [6]: 1.37 µM
IC50 [7]: 4.83 µM
IC50 [8]: 3.96 µM
Mice Tail Flick [9]: 258 % of control
tail flick assay time [9]: increased
blocking central pain compared with morphine [9]: as effective as morphine
pleurisy edema in rats [11]: reduced significantly
Rat Pleurisy [11]: 50 % of control

N#C[BH2-][P+](c1ccccc1)(c1ccccc1)c1ccccc1 [Compound 48]
Mice Writhing Reflex [2]: 50 % of control
reduction of the reflex action [2]: at least 45%
Rat Inflammatory [10]: 78 % of control
Mice Tail Flick [9]: 134 % of control

CC(=O)CCCCn1c(=O)c2c(ncn2C)n(C)c1=O [pentoxifylline, reference compound]
inhibition of induced inflammation [1]: 30%

CCNC(=O)[BH2-][NH2+]C [Compound 23]
Mice Writhing Reflex [2]: 27 % of control
reduction of the reflex action [2]: at least 45%
reduction in induced edema in rats [10]: at least 40%
Rat Inflammatory [10]: 41 % of control
IC50 [3]: 3.95 µM
IC50 [4]: 2.03 µM
IC50 [5]: 5.19 µM
IC50 [6]: 9.27 µM
IC50 [7]: 3.29 µM
IC50 [8]: 1.12 µM
Mice Tail Flick [9]: 81 % of control

CCCCCCCCCCCCCCCCCC[N+](C)(C)[BH2-]C(=O)O [Compound 9]
Mice Writhing Reflex [2]: 14 % of control
reduction of the reflex action [2]: 80%
Rat Inflammatory [10]: 72 % of control
IC50 [3]: 5.09 µM
IC50 [4]: 2.07 µM
IC50 [5]: 2.51 µM
IC50 [7]: 6.29 µM
IC50 [8]: 5.34 µM
Mice Tail Flick [9]: 231 % of control
tail flick assay time [9]: increased
blocking central pain compared with morphine [9]: as effective as morphine
pleurisy edema in rats [11]: reduced significantly
Rat Pleurisy [11]: 37 % of control

CCCCCCCCCCCCCCCCCC[N+](C)(C)[BH2-]C#N [Compound 36]
anti-inflammatory activity in mouse edema screen [1]: good activity
Mice Writhing Reflex [2]: 61 % of control
reduction of the reflex action [2]: at least 45%
IC50 [3]: 3.69 µM
IC50 [4]: 4.34 µM
IC50 [5]: 2.23 µM
IC50 [7]: 10.3 µM
IC50 [8]: 2.68 µM

CCCCCCCCCCCCCCCC[N+](C)(C)[BH2-]C(=O)OCC [Compound 19]
anti-inflammatory activity in mouse edema screen [1]: less active

CCCCNC(=O)[BH2-][N+](C)(C)C [Compound 27]
reduction of the reflex action [2]: at least 45%

COC(=O)[BH2-][N+](C)(C)C [Compound 16]
anti-inflammatory activity in mouse edema screen [1]: less active
Mice Writhing Reflex [2]: 2 % of control
reduction of the reflex action [2]: 80%
Rat Inflammatory [10]: 71 % of control
IC50 [3]: 8.28 µM
IC50 [4]: 3.23 µM
IC50 [5]: 2.41 µM
IC50 [6]: 17.6 µM
IC50 [7]: 8.76 µM
IC50 [8]: 3.55 µM
Mice Tail Flick [9]: 180 % of control
tail flick assay time [9]: increased
pleurisy edema in rats [11]: reduced significantly
Rat Pleurisy [11]: 45 % of control

O=C(O)[BH2-][n+]1ccccc1 [Compound 11]
Rat Inflammatory [10]: 77 % of control

CN1CC[C@]23c4c5ccc(O)c4O[C@H]2[C@@H](O)C=C[C@H]3[C@H]1C5 [Morphine, morphine, reference compound]
Mice Tail Flick [9]: 213 % of control

CC[N+]([BH2-]C#N)(CC)CP(=O)(OC(C)C)OC(C)C [Compound 64]
reduction of induced edema [1]: at least 40%

CCCC[N+](CCCC)(CCCC)CCCC.CCNC(=O)[BH2-][P+]([O-])(OCC)OCC [Compound 57]
IC50 [3]: 6.49 µM
IC50 [4]: 3.76 µM
IC50 [5]: 3.09 µM
IC50 [7]: 9.01 µM
IC50 [8]: 4.43 µM

CC(C)OP(=O)(C[NH+](C)[BH2-]C(=O)O)OC(C)C (centres unmarked) [Compound 71]
reduction of induced edema [1]: at least 40%
